Reference: US20110207751A1, “HETEROCYCLIC COMPOUNDS AND USES AS ANTICANCER AGENTS” (priority 2010, published 2011)
pIC50: −log10 of the molar value. Structures can show the parent of a compound that is named as a salt. Where two headings read alike, the source gives them in different places.

Key:
[1] = test system: SKOV3 cells (human ovarian cancer cell line); assay: Inhibition of cell proliferation, xCelligence cell index; type: cell-based; conditions: SK-OV-3, 72 hr post compound treatment, read-out: calculated IC50
Text: (§1) The biological activity of compounds disclosed herein was monitored and profiled using the Real-Time Cell Electronic Sensing (RT-CES®) system from ACEA Biosciences, Inc. The RT-CES system utilizes cell-substrate impedance technology to monitor cellular behavior inside tissue culture wells in a microtiter plate format. The technology features in the integration of molecular and cell biology with microelectronics and is based on the electronic detection of biological assay process. […]
(§2) For measurement of cell-substrate or cell-electrode impedance using RT-CES technology, microelectrodes having appropriate geometries are fabricated onto the bottom surfaces of microtiter plate or similar device, facing into the wells. […] When there are changes to the biological status of the cells analogue electronic readout signals are measured automatically and in real time, and are converted to digital signals for processing and for analysis. In a RT-CES system, a cell index (arbitrary representation of change in impedance) is automatically derived and provided based on measured electrode impedance values. […]
(§3) To quantify cell status based on the measured cell-electrode impedance, a parameter termed Cell Index is derived. Cell Index is a quantitative measure of the status of the cells in an electrode-containing well. […]

[2] = test system: KB200 cells over-expressing multiple drug resistant (MDR) gene; assay: as above; type: cell-based; conditions: Homo sapiens
Text: For measurement of cell-substrate or cell-electrode impedance using RT-CES technology, microelectrodes having appropriate geometries are fabricated onto the bottom surfaces of microtiter plate or similar device, facing into the wells. Cells are introduced into the wells of the devices, and make contact to and attach to the electrode surfaces. The presence, absence or change of properties of cells affects the electronic and ionic passage on the electrode sensor surfaces. Measuring the impedance between or among electrodes provides important information about biological status of cells present on the sensors. When there are changes to the biological status of the cells analogue electronic readout signals are measured automatically and in real time, and are converted to digital signals for processing and for analysis. In a RT-CES system, a cell index (arbitrary representation of change in impedance) is automatically derived and provided based on measured electrode impedance values. The cell index obtained for a given well reflects: 1) how many cells are attached to the electrode surfaces in this well; 2) how well cells are attached to the electrode surfaces in this well. Thus, the more the cells of same type in similar physiological conditions attach the electrode surfaces, the larger the cell index. And, the better the cells attach to the electrode surfaces (e.g., the cells spread-out more to have larger contact areas, or the cells attach tighter to electrode surfaces), the larger the cell index.
To quantify cell status based on the measured cell-electrode impedance, a parameter termed Cell Index is derived. Cell Index is a quantitative measure of the status of the cells in an electrode-containing well. Under the same physiological conditions, more cells attached on to the electrodes leads to larger cell-electrode resistance value, leading to a larger value for Cell Index. Furthermore, for the same number of cells present in the well, a change in the cell status such as morphology will lead to a change in the Cell Index. […]
The efficacy of these compounds was also tested against KB200 cell over-expressing multiple drug resistant (MDR) gene. […] The cell status was monitored prior to and after the compound addition using xCelligence system (Roche). […]

[3] = test system: A549 human lung cancer cells; assay: Cell Death Detection ELISA, apoptosis; type: cell-based; conditions: 37 nM, 24 hr, 48 hr, 72 hr
Procedure: To test if COMPOUND O compound induces apoptosis in cancer cells, the A549 human lung cancer cells were treated with 37 nM COMPOUND O and 37 nM paclitaxel. Cell apoptosis and death detection was measured by Cell Death Detection ELISA kit (Roche Applied Sciences), according to the assay protocol from the kit. Briefly, 5000 cells were seeded into each well of the 96-well plate. […] Cells were harvested and lysed 24 hr, 48 hr or 72 hr post drug treatment. Twenty microliters of lysate were removed and transferred to streptavidin-coated microplate and then incubated with anti-histone-biotin and anti-DNA-POD antibodies for 2 hr followed by adding 2,2′-azinobis-3-ethylbenzthiazoline-sulphonic-acid substrate for color development. The plate was measured at an absorbance of 405 and 490 nm in a Beckman Multimode DTX880 plate reader.

[4] = test system: HT1080 cells (human connective tissue cancer cell line); assay: Inhibition of cell proliferation, xCelligence cell index; type: cell-based; conditions: HT-1080, 72 hr post compound treatment, read-out: calculated IC50
Text: as §1, §2, §3

[5] = test system: MDA-MB-231 cells (human breast cancer cell line); assay: as above; type: cell-based; conditions: 72 hr post compound treatment, read-out: calculated IC50
Text: as §1, §2, §3

[6] = test system: MCF7 cells (human breast cancer cell line); assay: as above; type: cell-based; conditions: 72 hr post compound treatment, read-out: calculated IC50
Text: as §1, §2, §3

[7] = test system: tubulin (vinblastine-binding site); assay: Spin column assay with [^3H]vinblastine; conditions: tubulin with [^3H]vinblastine and unlabeled competitor, 37° C. 1 h
Procedure: (§4) Spin column assay. […] The reaction mixtures were incubated at 37° C. for 1 h. The samples were loaded onto Illustra™ MicroSpin™ G-50 columns (GE Healthcare) previously equilibrated with the buffer solution. The columns were placed into 1.5-ml tubes and spun at 750 g for 2 min at room temperature, and radioactivity in the flow-through was analyzed by a scintillation counter.

[8] = test system: tubulin (colchicine-binding site); assay: Spin column assay with [^3H]colchicine; conditions: tubulin with [^3H]colchicine and unlabeled competitor, 37° C. 1 h
Procedure: as §4

[9] = 72 hr post compound treatment, read-out: calculated IC50

CC(=O)O[C@H]1C(=O)[C@@]2(C)[C@H]([C@H](OC(=O)c3ccccc3)[C@]3(O)C[C@H](OC(=O)[C@H](O)[C@@H](NC(=O)c4ccccc4)c4ccccc4)C(C)=C1C3(C)C)[C@]1(OC(C)=O)CO[C@@H]1C[C@@H]2O [paclitaxel]
pIC50 [1]: 8.27
pIC50 [2, 9]: < 6.00
pIC50 ([2]; read-out: IC50): < 6.00
apoptotic signal [3]: strong apoptotic signals (starting from 48 hr post drug treatment)

CC[C@]1(O)C[C@H]2CN(CCc3c([nH]c4ccccc34)[C@@](C(=O)OC)(c3cc4c(cc3OC)N(C=O)[C@H]3[C@@](O)(C(=O)OC)[C@H](OC(C)=O)[C@]5(CC)C=CCN6CC[C@]43[C@@H]65)C2)C1 [vincristine]
pIC50 [4]: 8.70

CCc1ccc(Nc2nc(-c3c(C)nc4sccn34)cs2)cc1 [COMPOUND O, 2-(4-ethylphenyl)amino-4-(6-methylimidazo[2,1-b]thiazol-5-yl)-thiazole monohydrobromide]
pIC50 [4]: 8.12
pIC50 [5]: 7.49
pIC50 [1]: 8.26
pIC50 [6]: 7.13
amount of [^3H]vinblastine in the flow-through [7]: neither colchicine nor COMPOUND O affected the amount of [^3H]vinblastine in the flow-through
amount of [^3H]colchicine in the flow-through [8]: reduced the amount of [^3H]colchicine in the flow-through in a concentration-dependent manner
pIC50 [2, 9]: 8.01
apoptotic signal [3]: strong apoptotic signals (starting from 48 hr post drug treatment)
